Assay results: patent US11656230B2, “Method for predicting cancer sensitivity” (Eutropics Pharmaceuticals, Inc., priority 2013, dated 2023)

How the values were obtained:
[1] = target: Bcl-XL/BIM-BH3 heterodimer (Homo sapiens, UniProt Q07817); assay: ELISA: inhibition of HSBXB binding to non-covalent Bcl-XL-GST/BIM-BH3 heterodimer by ABT-263; conditions: heterodimers formed with BIM peptide on Glutathione-coated ELISA plates; compound added after peptides and before monoclonal antibody; FIG. 15
Description: The compound was added to the ELISA plates after addition of peptides and before adding the monoclonal antibody. The Bib BH3 domain peptide was added as a negative control.
ABT-263 disrupts Bcl-2/Bcl-xL interactions with pro-death proteins (e.g., Bim), leading to the initiation of apoptosis within 2 hours post treatment (Tse et al., 2008).

[2] = target: Bcl-XL/BIM heterodimer in SKBR3 cells (Homo sapiens, UniProt Q07817); assay: Near-infrared imaging of HSBXB binding in paraformaldehyde fixed cells incubated with ABT-263; type: cell-based; conditions: different concentrations of ABT-263, FIG. 17
Chain of Bcl-XL/BIM heterodimer in SKBR3 cells (Q07817 whole entry, one chain of several): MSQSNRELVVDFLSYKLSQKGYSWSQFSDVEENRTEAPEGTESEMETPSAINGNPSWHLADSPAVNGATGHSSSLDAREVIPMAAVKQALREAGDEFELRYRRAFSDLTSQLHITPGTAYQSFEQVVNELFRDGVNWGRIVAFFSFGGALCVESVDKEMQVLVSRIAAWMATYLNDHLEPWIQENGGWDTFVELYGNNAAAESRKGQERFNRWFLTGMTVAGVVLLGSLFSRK
Description: IRDye 800CW goat anti-mouse antibody was used for detecting the heterodimer specific mouse monoclonal antibody and IRDye 800CW Goat anti-rabbit antibody was used to detect the commercial Bcl-XL rabbit monoclonal antibody. […] The detection system uses near-infrared (IR) fluorophores (670-1100 nm) that have a distinct advantage over visible dyes, in that very low background fluorescence at longer wavelengths provides an excellent signal-to-noise ratio. […] In this system antibodies labeled with IR dyes at different wavelengths are used for detection of multiple targets. The imager simultaneously detects two distinct wavelengths. A scanning optical assembly carries two laser diodes that generate excitation light at 680 and 780 nm, as well as two avalanche photodiodes, which detect emitted fluorescence at 720 and 820 nm. […] IRDye 800CW goat anti-mouse antibody was used for detecting the heterodimer specific mouse monoclonal antibody and IRDye 800CW Goat anti-rabbit antibody was used to detect the commercial Bcl-XL rabbit monoclonal antibody.

[3] = target: Bcl-xL/Bim heterodimer in JEKO-1 cells (Homo sapiens, UniProt Q07817); assay: Flow cytometry (FACS), intracellular staining with HSBXB antibody; type: cell-based; conditions: 10 uM, 3 hours on ice, clone 32 at 10 ug/ml, FIG. 18
Chain of Bcl-xL/Bim heterodimer in JEKO-1 cells (Q07817 whole entry, one chain of several): as above
Description: As a positive control we pretreated with the Bim BH3 peptide at a concentration that achieve saturated binding to the endogenous Bcl-XL. […] To enhance staining and to establish a positive control we added saturating amount of the Bim BH3 peptide to partially lysed cells. As a negative control we pretreated with BH3 mimetic compound, ABT 263 to displace Bim from Bcl-xL. In this experiment 5×10e6 JEKO 1 cells were suspended in Newmeyer buffer (Ryan et al Proc Natl Acad Sci USA 2010; 107:12895-900), digitonin (Sigma-Aldrich, St Louis Mo.) and treated with 100 uM Bim BH3 peptide; or ABT263 compound at 10 uM; or not treated. Cells were incubated on ice for 3 hours, and then washed and treated with clone 32 at 10 ug/ml for 20 minutes, washed again and stained with secondary goat anti-mouse IgG alexa-488. An IgG-2A isotype control was also prepared and run in parallel. Samples are analyzed on a FACS Canto II (BD Biosciences, San Jose Calif.) using the BD FACS Diva software.

[4] = test system: mitochondrial outer membrane permeabilization (MOMP); assay: Mitochondrial profiling assay (MOMP); type: cell-based; conditions: mitochondrial profiling assay (unpublished data)
Description: In one embodiment, this can be determined by measuring the mitochondrial outer membrane permeabilization (MOMP), which increases when a cell is about to undergo apoptosis. Mitochondrial outer membrane permeabilization can be measured for example, using the potentiometric dye JC-1 or dihydrorhodamine. MOMP can be measured using standard techniques known in the art, including those described in Bogenberger et al. (Leukemia et al. (2014) which is herein incorporated by reference in its entirety). In a non-limiting example, cells are permeabilized and incubated with a mitochondrial dye (e.g. JC-1 or dihydrorhodamine 123) and BH3 peptides with dimethyl sulfoxide or carbonyl cyanide m-chlorophenyl hydrazone (CCCP) and the degree of staining is measured. […] As a positive control we pretreated with the Bim BH3 peptide at a concentration that achieve saturated binding to the endogenous Bcl-XL. This treatment is routinely used as a positive control for complete mitochondrial priming in our mitochondrial profiling AML test. […] To enhance staining and to establish a positive control we added saturating amount of the Bim BH3 peptide to partially lysed cells. […] Samples are analyzed on a FACS Canto II (BD Biosciences, San Jose Calif.) using the BD FACS Diva software.

[5] = test system: Bcl-2/Bcl-xL interactions with pro-death proteins (e.g., Bim); conditions: Tse et al., 2008; cited from earlier work

Chain of Bcl-XL/BIM-BH3 heterodimer (Q07817 whole entry, the tested form may be a part, one chain of several): as the sequence (Q07817 whole entry, one chain of several) above

Compound: CC1(C)CCC(c2ccc(Cl)cc2)=C(CN2CCN(c3ccc(C(=O)NS(=O)(=O)c4ccc(N[C@H](CCN5CCOCC5)CSc5ccccc5)c(S(=O)(=O)C(F)(F)F)c4)cc3)CC2)C1 [ABT-263, Navitoclax]
- inhibition of heterodimer antibody signal [1]: dose-dependent inhibition of heterodimer antibody signal
- displacement of Bcl-xL bound BIM BH3 peptide detected by HSBXB [2]: displacement of the Bcl-xL bound BIM BH3 peptide is detected
- displacement of Bim from Bcl-xL by flow cytometry using HSBXB antibody [3]: this displacement in measurable by flow cytometry
- MOMP on displacement of Bim [4]: results in MOMP
- time to initiation of apoptosis post treatment [5]: ≤ 2 h
